Reference: the NIST ThermoML archive (doi:10.1016/j.jct.2012.06.020)

Assay: mn = molality of the nth substance listed, in mol/kg
Settings: 101 kPa, Liquid; for mass density: Vibrating tube method; for speed of sound: OPTIME 1.0 from OPTEL

O=S(=O)([O-])C(F)(F)F.O=S(=O)([O-])C(F)(F)F.O=S(=O)([O-])C(F)(F)F.[Gd+3] [gadolinium (III) trifluoromethanesulfonate] + C[S+](C)[O-]
Settings	mass density, 293.15 K [kg/m3]	mass density, 298.15 K [kg/m3]	mass density, 303.15 K [kg/m3]	mass density, 313.15 K [kg/m3]	mass density, 323.15 K [kg/m3]	mass density, 333.15 K [kg/m3]	speed of sound, 298.15 K [m/s]
m1 = 0.01963	1108.73	1103.71	1098.7	1088.67	1078.66	1068.64	1481.8
m1 = 0.02663	1111.79	1106.78	1101.77	1091.75	1081.75	1071.74	1481
m1 = 0.03818	1116.88	1111.88	1106.87	1096.87	1086.88	1076.89	1479.6
m1 = 0.04655	1120.6	1115.6	1110.6	1100.61	1090.63	1080.64	1478.6
m1 = 0.05549	1124.6	1119.6	1114.6	1104.62	1094.65	1084.68	1477.5
m1 = 0.06913	1130.74	1125.75	1120.76	1110.8	1100.84	1090.89	1475.9
m1 = 0.08877	1139.72	1134.74	1129.76	1119.82	1109.89	1099.96	1473.6
m1 = 0.1071	1148.2	1143.23	1138.26	1128.34	1118.43	1108.52	1471.5
m1 = 0.124	1156.16	1151.2	1146.24	1136.34	1126.45	1116.58	1469.4
m1 = 0.1457	1166.53	1161.57	1156.62	1146.75	1136.88	1127.04	1467
m1 = 0.1629	1174.88	1169.93	1165	1155.14	1145.31	1135.48	1465

O=S(=O)([O-])C(F)(F)F.O=S(=O)([O-])C(F)(F)F.O=S(=O)([O-])C(F)(F)F.[Lu+3] [lutetium(III) trifluoromethanesulfonate] + C[S+](C)[O-]
Settings	mass density, 293.15 K [kg/m3]	mass density, 298.15 K [kg/m3]	mass density, 303.15 K [kg/m3]	mass density, 313.15 K [kg/m3]	mass density, 323.15 K [kg/m3]	mass density, 333.15 K [kg/m3]	speed of sound, 298.15 K [m/s]
m1 = 0.01878	1108.65	1103.62	1098.6	1088.57	1078.53	1068.49	–
m1 = 0.02625	1112.04	1107.02	1101.99	1091.95	1081.91	1071.88	–
m1 = 0.03372	1115.44	1110.42	1105.39	1095.36	1085.32	1075.28	–
m1 = 0.03373	–	–	–	–	–	–	1479.8
m1 = 0.04075	1118.67	1113.64	1108.62	1098.58	1088.54	1078.51	1478.9
m1 = 0.05063	1123.23	1118.2	1113.17	1103.14	1093.11	1083.07	1477.6
m1 = 0.06739	1131.05	1126.03	1121	1110.97	1100.94	1090.91	1475.5
m1 = 0.0825	1138.19	1133.17	1128.14	1118.09	1108.05	1098.05	1473.6
m1 = 0.09757	1145.41	1140.38	1135.36	1125.31	1115.27	1105.25	1471.7
m1 = 0.1139	1153.31	1148.28	1143.26	1133.2	1123.17	1113.14	1469.6
m1 = 0.1294	1160.93	1155.9	1150.87	1140.81	1130.77	1120.74	1467.6
m1 = 0.145	1168.67	1163.64	1158.61	1148.56	1138.52	1128.5	1465.7
m1 = 0.1599	1176.2	1171.16	1166.13	1156.07	1146.04	1136.01	1463.9

O=S(=O)([O-])C(F)(F)F.O=S(=O)([O-])C(F)(F)F.O=S(=O)([O-])C(F)(F)F.[La+3] [lanthanum(III) trifluoromethanesulfonate] + C[S+](C)[O-]
Settings	mass density, 293.15 K [kg/m3]	mass density, 298.15 K [kg/m3]	mass density, 303.15 K [kg/m3]	mass density, 313.15 K [kg/m3]	mass density, 323.15 K [kg/m3]	mass density, 333.15 K [kg/m3]	speed of sound, 298.15 K [m/s]
m1 = 0.01831	1107.63	1102.61	1097.59	1087.57	1077.55	1067.52	1482.3
m1 = 0.0248	1110.28	1105.26	1100.24	1090.22	1080.21	1070.19	1481.7
m1 = 0.03536	1114.62	1109.6	1104.59	1094.58	1084.58	1074.57	1480.7
m1 = 0.04296	1117.75	1112.74	1107.73	1097.73	1087.73	1077.74	1479.9
m1 = 0.05181	1121.43	1116.42	1111.41	1101.41	1091.43	1081.44	1479
m1 = 0.0646	1126.78	1121.77	1116.77	1106.78	1096.81	1086.84	1477.8
m1 = 0.08309	1134.62	1129.61	1124.62	1114.64	1104.68	1094.74	1476
m1 = 0.1003	1142	1136.99	1132	1122.04	1112.1	1102.16	1474.3
m1 = 0.1156	1148.66	1143.66	1138.68	1128.72	1118.8	1108.9	1472.9
m1 = 0.1362	1157.7	1152.71	1147.73	1137.79	1127.88	1117.99	1470.8
m1 = 0.1528	1165.12	1160.13	1155.15	1145.24	1135.35	1125.49	1469.3
